Key:
[1] = Fluorescence spectrometry; assay type: physicochemical; settings: for fluorescence emission peak: 1 μM in MeOH; for blue shift of fluorescence emission spectra at pH 4 from those at pH 10 / intensity of fluorescence at pH 4 and pH 10 / intensity of fluorescence in 50% aqueous MeOH compared with 100% MeOH: 420 nm excitation, 6 at 1 μM; for blue shift of fluorescence emission spectra at pH 4 from those at pH 10 / intensity of fluorescence at pH 4 and pH 10: 7 at 0.3 μM; for intensity of fluorescence in 50% aqueous MeOH compared with 100% MeOH: 7 at 0.5 μM
Description: Fluorescence measurements were done using a FluoroMate FS-2. Steady-state fluorescence spectra were generally taken at 1 μM of compounds (1, 2, 6, 10, and 13) and 0.5 μM of compound 7 in MeOH. The samples were illuminated with 420 and 440 nm of light and fluorescence emission was scanned from 500 to 800 nm. Fluorescence spectra in both aqueous and organic solvent were generally taken at 1 μM of compound 6 and 0.5 μM of compound 7 in 100% MeOH and 50% aqueous MeOH by illumination with 420 nm of light. The pH profiles of fluorescence spectra were generally taken at 1 μM of compound 6 and 0.3 μM of compound 7 at pH 4 and 10 in MeOH by illumination with 420 nm of light.
To determine fluorescence quenching effect of the conjugates, the intensity of fluorescence of each compound with same concentration was analyzed using fluorescence spectrophotometer. The fluorescence emission spectrum of compounds at 1 μM (1, 2, 6, 10, and 13) and 0.5 μM (7) was obtained by excitation wavelengths (420 and 440 nm). […] Therefore, it could be speculated that the background fluorescence of the conjugates as they are administered invivo, may not be detected until internalization and cleavage of the conjugates by enzymatic attack in cancer cells are occurred so that the photoactivity of Pa and DOX may be recovered. In the case of Pa-PTX conjugate (7), fluorescence quenching effect was not observed as PTX is not a fluorophore (FIG. 3). To verify fluorescence quenching due to a close contact effect, spectral comparison of fluorescence emission of compounds 6 (1 μM) and 7 (0.5 μM) in aqueous and organic solvent was investigated by 420 nm excitation wavelength using fluorescence spectrophotometer. In contact quenching, two molecules interact by proton-coupled electron transfer through the formation of hydrogen bonds. In aqueous solutions, electrostatic, steric and hydrophobic forces control the formation of hydrogen bonds. Therefore, the quenching efficiency of conjugates could depend on the employed solvents.

[2] = test system: MCF7 (breast adenocarcinoma) cells; assay: SRB cell viability assay, MCF7; assay type: cell-based; settings: 10 μM, three days
Description: (§1) The AT-84 is a squamous cell carcinoma, spontaneously arising from oral mucosa and syngenic to C3H/HeJ mice (which were kindly provided by Dr. E. J. Shillitoe, State University of New York, Upstate Medical University). MCF7, KB, HCT116, PC3, U-87MG, SK-OV-3, AT-84 cells were grown in RPMI 1640. The adherent cell line HepG2, HeLa, A549, YD-10B cells were cultured in DMEM medium. Both media were supplemented with 10% FBS (Invitrogen Co.), and antibiotic-antimycotic (Invitrogen Co.). All cell lines were incubated in a humidified atmosphere containing 5% CO2 at 37° C. The adherent cells were detached from the culture flasks by removal of the growth medium and addition of 1 mL trypsin/EDTA solution (0.05% w/v trypsin, 0.016% w/v EDTA). After 1-2 min incubation at 37° C., when the cells had detached from the surface, trypsinization was stopped by the addition of 4 mL of DMEM medium containing 10% FBS. […]
(§2) A cell viability assay was conducted to test the synthesized compounds on various cancer cells including MCF7 (breast adenocarcinoma), KB (mouth carcinoma), HeLa (cervical cancer), U-87MG (glioblastoma), A549 (lung adenocarcinoma), AT-84 (oral cancer), and YD-10B (oral cancer) cells. Briefly, the cells were incubated for three days with the synthesized compounds (6, 7, 10, and 13) and the viability was measured by the protocol of SRB assay. […]

[3] = test system: HeLa (cervical cancer) cells; assay: SRB cell viability assay, HeLa; assay type: cell-based; settings: 10 μM, three days
Description: as §1, §2

[4] = test system: U-87MG (glioblastoma) cells; assay: SRB cell viability assay, U-87MG; assay type: cell-based; settings: U-87MG cells, 10 μM, three days
Description: as §1, §2

[5] = test system: AT-84 (oral cancer) cells; assay: SRB cell viability assay, AT-84; assay type: cell-based, mice; settings: AT-84 cells, 10 μM, three days
Description: as §1, §2

various cancer cells = assay: SRB cell viability assay, various cancer cells (overall comparison); assay type: cell-based; settings: same concentration (10 μM), three days; 6 compared with DOX; 10 and 13 compared with Pa-DOX direct conjugate
Description: The AT-84 is a squamous cell carcinoma, spontaneously arising from oral mucosa and syngenic to C3H/HeJ mice (which were kindly provided by Dr. E. J. Shillitoe, State University of New York, Upstate Medical University). MCF7, KB, HCT116, PC3, U-87MG, SK-OV-3, AT-84 cells were grown in RPMI 1640. The adherent cell line HepG2, HeLa, A549, YD-10B cells were cultured in DMEM medium. Both media were supplemented with 10% FBS (Invitrogen Co.), and antibiotic-antimycotic (Invitrogen Co.). All cell lines were incubated in a humidified atmosphere containing 5% CO2 at 37° C. The adherent cells were detached from the culture flasks by removal of the growth medium and addition of 1 mL trypsin/EDTA solution (0.05% w/v trypsin, 0.016% w/v EDTA). After 1-2 min incubation at 37° C., when the cells had detached from the surface, trypsinization was stopped by the addition of 4 mL of DMEM medium containing 10% FBS.
The cells were plated at a density of 50,000 cells/mL and well in 96-well plates and incubated with inhibitors for the time indicated. The SRB assay was carried out as described by Skehan et al. (Skehan, P. et al., J. Natl. Cancer Inst. 1990, 82, 1107). The drug incubation period of the cells was stopped by the addition of 50 μL of ice cold TCA solution into the growth medium.
A cell viability assay was conducted to test the synthesized compounds on various cancer cells including MCF7 (breast adenocarcinoma), KB (mouth carcinoma), HeLa (cervical cancer), U-87MG (glioblastoma), A549 (lung adenocarcinoma), AT-84 (oral cancer), and YD-10B (oral cancer) cells. Briefly, the cells were incubated for three days with the synthesized compounds (6, 7, 10, and 13) and the viability was measured by the protocol of SRB assay. […] The results may be interpreted with possibilities that the conjugates may suffer from entering the cells or being cleaved in the cells. Infact, the cellular uptake of the conjugates was occurred slower than Pa itself as shown in the study of Section 2.4. […]

[6] = test system: KB (mouth carcinoma) cells; assay: SRB cell viability assay, KB; assay type: cell-based; settings: 10 μM, three days
Description: as §1, §2

[7] = test system: YD-10B (oral cancer) cells; assay: SRB cell viability assay, YD-10B; assay type: cell-based; settings: YD-10B cells, 10 μM, three days
Description: as §1, §2

| Compound | fluorescence emission peak ([1]; excitation 420 and 440 nm) | inhibition of growth / cell viability [2] | inhibition of growth / cell viability [3] | inhibitory activity of the cell viability relative to comparator (various cancer cells) | blue shift of fluorescence emission spectra at pH 4 from those at pH 10 [1] | intensity of fluorescence at pH 4 and pH 10 [1] | intensity of fluorescence in 50% aqueous MeOH compared with 100% MeOH [1] | also measured |
| --- | --- | --- | --- | --- | --- | --- | --- | --- |
| C=Cc1c(C)c2cc3nc(c4c5[nH]c(cc6nc(cc1[nH]2)C(C)=C6CC)c(C)c5C(=O)C4C(=O)OC)[C@@H](CCC(=O)O)[C@@H]3C (stereo partly drawn) [Compound 1, Pheophorbide-α] | 665 nm | – | – | – | – | – | – | – |
| COc1cccc2c1C(=O)c1c(O)c3c(c(O)c1C2=O)C[C@@](O)(C(=O)CO)C[C@@H]3O[C@H]1C[C@H](N)[C@H](O)[C@H](C)O1 [Compound 2, doxorubicin, reference compound] | 585 nm | – | – | – | – | – | – | – |
| C=Cc1c(C)c2cc3nc(c4c5[nH]c(cc6nc(cc1[nH]2)C(C)=C6CC)c(C)c5C(=O)C4C(=O)OC)[C@@H](CCC(=O)NC1C[C@@H](O[C@H]2C[C@](O)(C(=O)CO)Cc4c(O)c5c(c(O)c42)C(=O)c2c(OC)cccc2C5=O)O[C@H](C)[C@@H]1O)[C@@H]3C (stereo partly drawn) [Compound 6, Pheophorbide-α-Doxorubicin] | 670 nm | moderately inhibited | moderately inhibited | lower activity than DOX itself | about 10 nm | increased at pH 4 but decreased at pH 10 | significantly reduced | inhibition of growth / cell viability [4]: moderately inhibited; inhibition of growth / cell viability [5]: moderately inhibited |
| C=Cc1c(C)c2cc3nc(c4c5[nH]c(cc6nc(cc1[nH]2)C(C)=C6CC)c(C)c5C(=O)C4C(=O)OC)[C@@H](CCC(=O)O[C@H](C(=O)O[C@H]1C[C@@]2(O)[C@@H](OC(=O)c4ccccc4)[C@@H]4[C@]5(OC(C)=O)CO[C@@H]5C[C@H](O)[C@@]4(C)C(=O)[C@H](OC(C)=O)C(=C1C)C2(C)C)[C@H](NC(=O)c1ccccc1)c1ccccc1)[C@@H]3C (stereo partly drawn) [Compound 7, Pheophorbide-α-Paclitaxel] | – | potent inhibitory activity | potent inhibitory activity | – | about 10 nm | increased at pH 4 but decreased at pH 10 | significantly reduced | inhibition of growth / cell viability [6]: potent inhibitory activity; inhibition of growth / cell viability [7]: potent inhibitory activity; fluorescence quenching effect ([1]; 0.5 μM in MeOH, excitation 420 and 440 nm): not observed |
| Pheophorbide-α-2-hydroxycinnamic acid-doxorubicin [Compound 10] | 670 nm | – | – | generally less inhibitory activity | – | – | – | – |
| Pheophorbide-α-4-aminobenzyl alcohol-4-nitrophenyl formate-doxorubicin [Compound 13] | 670 nm | – | – | generally less inhibitory activity | – | – | – | – |
